Like-named read-outs stand apart in the source and are kept apart here.
How the values were obtained:
caspase-3 [1] = target: T1, caspase-3 (Homo sapiens, UniProt P42574); test: Caspase-3 inhibition (Ki); type: biochemical; conditions: for change of binding affinity relative to compound 18: removal of hydroxyl group / hydroxyl and acid moiety
T1 sequence (P42574 29-175 limits assumed): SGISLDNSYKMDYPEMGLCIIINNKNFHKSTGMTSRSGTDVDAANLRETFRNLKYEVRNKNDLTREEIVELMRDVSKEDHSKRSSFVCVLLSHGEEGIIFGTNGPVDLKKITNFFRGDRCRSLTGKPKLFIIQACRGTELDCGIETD
T1 sequence (P42574 176-277 limits assumed): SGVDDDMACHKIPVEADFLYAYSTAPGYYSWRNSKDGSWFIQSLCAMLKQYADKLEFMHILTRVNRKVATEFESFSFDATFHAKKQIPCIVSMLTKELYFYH

E. coli TS = E. coli TS (Escherichia coli, UniProt P0A884); test: Thymidylate synthase inhibition, enzymatic assay (Michaelis-Menten kinetics) on tether-free analogs; type: biochemical
Description: TS is an ideal validating target for several reasons. […] Second, a simple colorimetric assay exists for determining whether a potential ligand binds to TS. This assay depends on the rate of conversion of 5,10-CH2—H4folate to H2folate in the presence of dUMP. A second assay for binding is also spectrophotometric and relies on competition with pyridoxal-5′-phosphate (“PLP”), which forms a complex with TS with a unique spectral signature.
The TS chosen for the purposes of illustration is the E. coli TS. […] The E. coli TS includes four other cysteines but these are not conserved among other TS enzymes and are buried and thus not accessible. However, if one or more of these cysteines were reactive toward disulfides, then mutant versions of these enzymes can be used where these cysteines are mutated to another amino acid such as alanine.
In one illustrative example, the tethering experiment is performed in the presence of a known substrate. […] In contrast, a ligand candidate that lacks an inherent binding affinity or cysteamine would be easily displaced by the substrate. Another illustrative example is traditional enzymatic assays on the tether-free analog. For example, the affinity of the [drawing 14] R^c portion of the ligand fragment was determined using Michaelis-Mention kinetics.
The inhibition constants of the untethered versions of the selected ligand candidates were determined.

[2] = target: T2, target-extender complex 13′ (caspase-3 modified with extender 13) (Homo sapiens, UniProt P42574); test: Tethering with extender, target-extender complex 13′; type: binding; conditions: library of about 10,000 ligand candidates
T2 construct: made in house
T2 sequence (P42574 29-175): T1 sequence (P42574 29-175 limits assumed)
T2 sequence (P42574 176-277): T1 sequence (P42574 176-277 limits assumed)
Description: (§1) Target-extender complexes 13′ and 14′ were each used in the tethering method against a library of about 10,000 ligand candidates. An illustrative example of a selected ligand-candidate using target-extender complex 13′ is [drawing 39]
(§2) This example describes the modification of caspase-3 with extender 13. Caspase-3 was cloned, overexpressed, and purified using standard techniques. […] The protein was concentrated in a Ultrafree 5 MWCO unit and the buffer exchanged to 0.1 M TES pH 7.5 using a Nap-5 column.

[3] = target: T3, target-extender complex 14′ (caspase-3 modified with extender 14) (Homo sapiens, UniProt P42574); test: Tethering with extender, target-extender complex 14′; type: binding; conditions: library of about 10,000 ligand candidates
T3 construct: made in house
T3 sequence (P42574 29-175): T1 sequence (P42574 29-175 limits assumed)
T3 sequence (P42574 176-277): T1 sequence (P42574 176-277 limits assumed)
Description: as §1

caspase-3 [4] = target: T1, caspase-3; test: Modification of caspase-3 with extender (mass-spectroscopy); type: binding; conditions: ambient temperature, 3.5 hours
Description: as §2

[5] = type: physicochemical
Method: The thiirane (17 mg, 0.047 mmol) was dissolved in dry DCM (5 ml), chilled in an ice-water bath, and treated with 5 ml trifluoroacetic acid. The reaction was allowed to proceed on ice for 40 minutes at which point it was evaporated to dryness and purified using reverse phase HPLC to yield compound 40 as a white solid (1.8 mg, 0.0058 mmol, 13%, ES (+) MS m/z=332 (M+Na)). […] It is generally preferred that the conjugation reaction of this extender to the active site thiol of caspases is performed for only 2–5 minutes at pH 6 and at low stoichiometries with respect to enzyme (1–3 equivalents)

[6] = Table 2, glutamate-grafted N-tosyl-proline derivatives
[7] = untethered versions of selected ligand candidates, Example 6

Chain of E. coli TS (P0A884 whole entry): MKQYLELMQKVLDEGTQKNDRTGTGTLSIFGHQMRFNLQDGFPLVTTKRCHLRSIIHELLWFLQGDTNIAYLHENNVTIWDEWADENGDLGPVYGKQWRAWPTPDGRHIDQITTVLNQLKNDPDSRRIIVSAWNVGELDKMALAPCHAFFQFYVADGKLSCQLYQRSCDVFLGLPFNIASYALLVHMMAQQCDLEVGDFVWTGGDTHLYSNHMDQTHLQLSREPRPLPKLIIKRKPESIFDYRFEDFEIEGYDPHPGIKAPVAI

In the case of `O=C[C@H](CC(=O)O)NC(=O)CCCCCNS(=O)(=O)c1cccc(C(=O)O)c1` [compound 19], the Ki (caspase-3 [1]; Table 4) is reported as 15.3 µM and the “change of binding affinity relative to compound 18” value (caspase-3 [1]) is reported as “reduced the affinity by a factor of five”.
`O=C(O)CCC[C@H](NC(=O)c1ccc(S(=O)(=O)N2CCCC2C(=O)O)cc1)C(=O)O` (stereo partly shown) [compound 7] showed a Ki (E. coli TS; [6]) of 23 ± 6 µM.
For `Cc1ccc(S(=O)(=O)N2CCC[C@@H]2C(=O)O)cc1` [compound 1, N-tosyl-D-proline], the mode of inhibition (E. coli TS; competed with the natural substrate dUMP) was “weak but competitive inhibitor” and the Ki (E. coli TS; free acid, Michaelis-Menten kinetics) was 1100 ± 250 µM.
In the case of `NCCSSCCNS(=O)(=O)c1cccc(C(=O)O)c1` [ligand candidate 17], the selection in tethering [2] is reported as “not selected” and the selection in tethering [3] is reported as “not selected”.
`O=C(O)CCCCC[C@H](NC(=O)c1ccc(S(=O)(=O)N2CCCC2C(=O)O)cc1)C(=O)O` (stereo partly shown) [compound 9] showed a Ki (E. coli TS; [6]) of 14 ± 6 µM.
In the case of `CS(=O)(=O)c1ccc(C(=O)NCCSSCCN)s1` [ligand candidate 16], the selection in tethering [2] is reported as “not selected” and the selection in tethering [3] is reported as “selected”.
For `CS(=O)(=O)c1ccc(C(=O)NCCCS(=O)(=O)Cc2cccc(S(=O)(=O)N[C@H](C=O)CC(=O)O)c2)s1` [compound 22], the Ki (caspase-3 [1]) was 0.33 µM.
`O=C(O)CCCC[C@H](NC(=O)c1ccc(S(=O)(=O)N2CCCC2C(=O)O)cc1)C(=O)O` (stereo partly shown) [compound 8] showed a Ki (E. coli TS; [6]) of 32 ± 2 µM.
Molecule `NC(=O)CC[C@H](NC(=O)c1ccc(S(=O)(=O)N2CCCC2C(=O)O)cc1)C(=O)O` (stereo partly shown) [compound 11] has a Ki (E. coli TS; [6]) of 61 ± 14 µM.
For `NCCSSCCNS(=O)(=O)c1ccc(O)c(C(=O)O)c1` [ligand candidate 15], the selection in tethering [2] was “selected” and the selection in tethering [3] was “not selected”.
With `O=C[C@H](CC(=O)O)NC(=O)c1ccc(CNS(=O)(=O)c2ccc(O)c(C(=O)O)c2)cc1` [compound 21] the Ki (caspase-3 [1]) was roughly 0.16 µM, the “Ki better than compound 18” value (caspase-3 [1]) was “more than 10 fold” and the Ki (caspase-3 [1]; Table 4) was 0.16 µM. For the same molecule, the “improvement of binding by addition of the salicylate sulfonamide” value (caspase-3 [1]; versus salicylate sulfonamide-less fragment) was “about 200 fold”.
With `CC(=O)SCC(=O)N[C@@H](CC(=O)O)C(=O)COC(=O)c1c(Cl)cccc1Cl` [compound 13, 2,6-Dichloro-benzoic acid 3-(2-acetylsulfanyl-acetylamino)-4-carboxy-2-oxo-butyl ester] the “modification of caspase 3 large subunit” value (caspase-3 [4]) was “complete modification”.
Molecule `O=C(O)COc1ccc(/C=N/OCCCO/N=C/c2ccc(S(=O)(=O)N3CCCC3C(=O)O)cc2)cc1` (stereo not shown) [compound 2] has a Ki (E. coli TS; [7]) of roughly 55 µM.
In the case of `CC(C)[C@H](NC(=O)[C@H](CCC(=O)O)NS(=O)(=O)c1ccc(O)c(C(=O)O)c1)C(=O)N[C@H](C=O)CC(=O)O` [compound II], the “decrease in binding affinity versus compound I” value (caspase-3 [1]; addition of salicylate sulfonamide moiety to compound I) is reported as roughly 300 fold.
With `CC(=O)N[C@@H](CCC(=O)O)C(=O)N[C@H](C(=O)N[C@H](C=O)CC(=O)O)C(C)C` [compound I, reference compound] the Ki (caspase-3 [1]) was 0.051 µM.
In the case of `O=C[C@H](CC(=O)O)NC(=O)CCCCCNS(=O)(=O)c1ccccc1` [compound 20], the Ki (caspase-3 [1]; Table 4) is reported as greater than 100 µM and the “change of binding affinity relative to compound 18” value (caspase-3 [1]) is reported as “ablated binding affinity entirely”.
Molecule `O=C(O)C[C@H](NC(=O)c1ccc(S(=O)(=O)N2CCCC2C(=O)O)cc1)C(=O)O` (stereo partly shown) [compound 6] has a Ki (E. coli TS; [6]) of 242 ± 3 µM.
Work on `O=C(O)COc1ccc(/C=N\OCCCCCCO/N=C/c2ccc(S(=O)(=O)N3CCCC3C(=O)O)cc2)cc1` (stereo not shown) [compound 3] yielded a Ki (E. coli TS; [7]) of roughly 40 µM.
In the case of `O=C(O)CCCNC(=O)c1ccc(S(=O)(=O)N2CCCC2C(=O)O)cc1` (stereo not shown) [compound 12], the Ki (E. coli TS; [6]) is reported as 246 ± 46 µM.
With `O=C(O)C[C@H](NC(=O)OCc1ccccc1)C(=O)C1CS1` (stereo partly shown) [compound 40] the “stability as solution in methanol” value [5] was “stable for months” and the “stability in DMSO” value [5] was “not stable”.
For `NC(=O)[C@H](CCC(=O)O)NC(=O)c1ccc(S(=O)(=O)N2CCCC2C(=O)O)cc1` (stereo partly shown) [compound 10], the Ki (E. coli TS; [6]) was 378 ± 69 µM.
